In patent US20060111410A1, “Microbicide substances” (priority 2002, published 2006):

How the values were obtained:
Pseudomonas fluorescens = experiment: Synergism BIT/TMAD, amounts required to suppress growth; format: cell-based; settings: compound applied on its own
Text: (§1) The observed synergism of the mixtures according to the invention can be determined by the following mathematical approach (cf. F. C. Kull, P. C. Elisman, H. D. Sylwestrowicz and P. K. Mayer, Appl. Microbiol. 9, 538 (1961): [formula] where • Qa=the amount of component A in the active compound mixture required to achieve the desired effect, i.e. no microbial growth, • QA=the amount of component A which, applied on its own, suppresses the growth of the microorganisms, • Qb=the amount of component B in the active compound mixture which supresses the growth of the microorganisms, and • QB=the amount of component B which, applied on its own, suppresses the growth of the microorganisms.
(§2) A synergistic index of SI<1 indicates a synergistic effect for the active compound mixture.
Test germ: Pseudomonas fluorescens
(§3) The numbers in brackets indicate the weight ratio of the active compounds in the mixtures. [formula] A=BIT/B=TMAD

Pseudomonas aeruginosa = experiment: as above; format: cell-based; settings: compound applied on its own
Text: as §1, §2
Test germ: Pseudomonas aeruginosa
as §3

Compound	Amounts of the pure active compounds required to suppress growth (Pseudomonas fluorescens) [ppm]	Amounts of the pure active compounds required to suppress growth (Pseudomonas aeruginosa) [ppm]
O=c1[nH]sc2ccccc12 [BIT, 1,2-benzisothiazolinone]	20	20
O=C1N(CO)C2C(N1CO)N(CO)C(=O)N2CO (stereo not shown) [TMAD, tetramethylolacetylenediurea]	500	500
